# In ChEMBL document CHEMBL1128167, “(3R, 4S)-3-Benzyl-4-bromomethyloxetan-2-one, a fast acting alternate substrate inhibitor of -chymotrypsin” (Bioorg Med Chem Lett, 1995):
# Experiments:
# Chymotrypsinogen B [1] = target: T1, Chymotrypsinogen B (Homo sapiens, UniProt P17538); test: (§1) Inhibition of Alpha-chymotrypsin was determined by competitive substrate assay method
# Chymotrypsinogen B [2] = target: T1, Chymotrypsinogen B; test: as §1; remark: listed apart in the source
# T1 sequence (P17538 34-164 limits assumed, other chains not shown): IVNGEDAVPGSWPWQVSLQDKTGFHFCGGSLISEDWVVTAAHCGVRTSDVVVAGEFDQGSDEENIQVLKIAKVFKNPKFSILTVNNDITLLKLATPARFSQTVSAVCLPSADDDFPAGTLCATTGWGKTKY
# T1 sequence (P17538 167-263 limits assumed, other chains not shown): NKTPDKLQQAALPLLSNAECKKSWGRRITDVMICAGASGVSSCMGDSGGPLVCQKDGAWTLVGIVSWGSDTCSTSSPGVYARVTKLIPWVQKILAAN
structure (smiles),measurement,setting,value
O=C1O[C@H](CBr)[C@H]1Cc1ccccc1,Ka,Chymotrypsinogen B [1],2.94 min⁻¹
same,Ki,Chymotrypsinogen B [2],2.55 µM
